The values below are quoted from earlier work in patent US20060189533A1, “Stable pharmaceutical dosage forms of teriparatide” (Nastech Pharmaceutical Company Inc., priority 2004, published 2006).

For data set [1] the following is noted: up to 500 μg per day for 7 days; up to 1,000 μg per day for 3 months.
A further data set relates to ovariectomized rat. The following applies: ovariectomized rat model.
The conditions of data set [2]: anesthetized rats.

Read-outs that look alike come from different tables or passages of the source. Where no end group is shown, it is not given here.

Consider `CC[C@H](C)[C@H](NC(=O)[C@H](CCC(=O)O)NC(=O)[C@H](CO)NC(=O)[C@@H](NC(=O)[C@@H](N)CO)C(C)C)C(=O)N[C@@H](CCC(N)=O)C(=O)N[C@@H](CC(C)C)C(=O)N[C@@H](CCSC)C(=O)N[C@@H](Cc1cnc[nH]1)C(=O)N[C@@H](CC(N)=O)C(=O)N[C@@H](CC(C)C)C(=O)NCC(=O)N[C@@H](CCCCN)C(=O)N[C@@H](Cc1cnc[nH]1)C(=O)N[C@@H](CC(C)C)C(=O)N[C@@H](CC(N)=O)C(=O)N[C@@H](CO)C(=O)N[C@@H](CCSC)C(=O)N[C@@H](CCC(=O)O)C(=O)N[C@@H](CCCN=C(N)N)C(=O)N[C@H](C(=O)N[C@@H](CCC(=O)O)C(=O)N[C@@H](Cc1c[nH]c2ccccc12)C(=O)N[C@@H](CC(C)C)C(=O)N[C@@H](CCCN=C(N)N)C(=O)N[C@@H](CCCCN)C(=O)N[C@@H](CCCCN)C(=O)N[C@@H](CC(C)C)C(=O)N[C@@H](CCC(N)=O)C(=O)N[C@@H](CC(=O)O)C(=O)N[C@H](C(=O)N[C@@H](Cc1cnc[nH]1)C(=O)N[C@@H](CC(N)=O)C(=O)N[C@@H](Cc1ccccc1)C(=O)O)C(C)C)C(C)C` [Teriparatide], for which, in data set [1], the “safety of the intranasal route” value is reported as “no safety concerns were noted”.

Take “hPTH1-31NH2: linear PTH analogue with only AC-stimulating activity, SEQ ID NO: 3 (SVSEIQLMHNLGKHLNSMERVEWLRKKLQDV-NH2; listed as Homo sapiens)”: in the data set on ovariectomized rat, the “activity in the restoration of bone loss” value is listed as “fully active”.

In the case of “human growth hormone: protein whose nasal bioavailability is reported to be modestly increased by N-acetyl-L-cysteine”, the nasal bioavailability in data set [2] (before increase by N-acetyl-L-cysteine) was 7.5%; in data set [2] (with N-acetyl-L-cysteine), 12.2%.
